PMC9865188 (Pharmaceutics, 2023)
Like-named read-outs stand apart in the source and are kept apart here.

Tests used:
[1] = cited from earlier work
[2] = Nonspecific zosuquidar adsorption to glass HPLC vials; assay type: physicochemical; settings: for nonspecific zosuquidar adsorption: 25% methanol in HEPES HBSS pH 7.4; for zosuquidar concentration found (theoretical 250 nM): HEPES HBSS pH 7.4 in glass vial
Procedure: Generally, when zosuquidar was diluted in aqueous solutions, less zosuquidar than expected was present according to HPLC-FL quantitation, when compared to the corresponding dilutions in water–organic solvent mixtures. […] These were further diluted in methanol or DMSO to 100 µM. For adsorption experiments, solutions of 0.5–49.5% v/v methanol or DMSO in HEPES HBSS pH 7.4 were prepared, along with HEPES HBSS pH 7.4 supplemented with 0.10, 1.0, 2.5, 5.0, 10, or 50 µM polysorbate 20 or 0.05% bovine serum albumin, as well as 10 mM MES HBSS pH 6.5, 10 mM ammonium acetate pH 4.5, 19 mM maleic acid buffer pH 6.5, and FaSSIF-V2. […] The vials were capped and vortexed for 1 min and equilibrated at ambient temperature for approximately 24 h before HPLC-FL analysis. The peak area of the samples was normalised to the peak area of control samples, which were considered to elicit 0% adsorption. […] Both vials were equilibrated at room temperature for at least 24 h. […] The solutions in both vials were then analysed directly by HPLC-FL.

[3] = Pharmacokinetic study in Sprague Dawley rats (oral gavage); assay type: in vivo; settings: for AUC(0-t) / Cmax / bioavailability / half-life: male, Sprague-Dawley, rat, plasma, po; for AUC(0-t): Zosuquidar AUC0–6h; for Cmax: Zosuquidar Cmax; for bioavailability: Zosuquidar bioavailability; for half-life: Zosuquidar t½
Procedure: The study was conducted according to the European Convention for the Protection of Vertebrate Animals used for Experimental and other Scientific Purposes (ETS no. 123) and Belgian law controlling the experiments on animals (Royal Decree of 29 May 2013 for the protection of laboratory animals). Animals were allowed minimum five days to acclimatise upon arrival from the supplier, and they were housed in polysulphone cages (58 × 52 × 20 cm) in groups of six provided with wooden sticks for enrichment. Animals had free access to Safe 04 Maintenance Diet (Safe, Rosenberg, Germany) and water during acclimatisation and during the study.
Male Sprague Dawley rats (Charles River, Dortmund, Germany) weighing 293–358 g were randomly assigned into six groups of six animals. Formulations were prepared as clear solutions in 40% v/v ethanol–water and 10 mL/kg was administered to each animal by oral gavage. […] Plasma samples were taken by tail vein puncture with a needle followed by collection in 32–64 µL micro haematocrit tubes (Vitrex Medical, Herlev, Denmark) at times 15, 30, and 45 min and 1, 2, 3, 4, and 6 h. Samples were centrifuged, and plasma was transferred into 10 µL end-to-end pipettes (Vitrex Medical, Herlev, Denmark) and immediately frozen at −80 °C until bioanalysis. Immediately after the study, animals were euthanised according to the principles of euthanasia stated in the AVMA Guidelines for the Euthanasia of Animals (American Veterinary Medical Association, 2020). Plasma samples were analysed by a previously described qualified LC-MS/MS method.
Pharmacokinetic parameters were calculated individually for each animal subject and pooled for statistical analysis. The plasma concentration at 15 min (C15min) was reported as an average of the plasma concentration of the six animals in each group. […] Elimination rate constants (ke) were calculated by linear regression of the linear part of the ln(plasma concentration) versus time profiles, and plasma half-life (t½) was calculated from ke:(3) t½=ln (2)/ke

P-gp = P-gp (Homo sapiens, UniProt P08183); assay: Calcein-AM assay in MDCKII-MDR1 cells; assay type: cell-based; parameters: Piet Borst (Netherlands Cancer Institute); host or cells: MDCKII
Procedure: Before the experiment, growth medium was removed by vacuum suction (Vacusip, Integra Biosciences, NH, USA), 100 µL HEPES HBSS pH 7.4 was added to each well with a multichannel pipette, and the cells were incubated on a Talboys 1000 MP incubating microplate shaker (Troemner, NJ, USA, 220 rpm, 37 °C).
A total of 170 µL of the test solutions could then be transferred from the 96-well plate to the cell-containing plate at the start of preincubation. […] Wells containing HEPES HBSS pH 7.4 only served as a positive control. The cells were preincubated with test solutions (serial and spike) for 10 min on a microplate shaker (37 °C, 220 rpm). To start the experiment, 30 µL 33.3 µM calcein-AM in HEPES HBSS pH 7.4 was added to each well with a multichannel pipette, and the plate was stirred for 1 min on a microplate shaker (37 °C, 220 rpm) before being transferred to a Fluostar Omega plate reader.
One column of wells was kept without cells to measure background fluorescence signals from the applied buffers and compounds.

[4] = HEPES HBSS pH 7.4 + 5 or 10 µM polysorbate 20, 1% methanol, or 1% DMSO
Procedure: Samples were shaken on a vertical rotator (10 rpm, PTR-60, Grant Instruments, Cambridge, UK) for approximately 72 h at ambient temperature. The suspensions were then centrifuged at ambient temperature (15,000 RCF, 10 min, Multifuge X1R, Thermo Fisher Scientific, Boston, MA, USA), and a sample of the supernatant was transferred and diluted 1:1 with mobile phase in a 2 mL glass HPLC vial and analysed by fluorescence-coupled HPLC (HPLC-FL).

[5] = group G*: zosuquidar 2.0 mg/kg + etoposide 20 mg/kg oral
[6] = group H*: zosuquidar 6.3 mg/kg + etoposide 20 mg/kg oral
[7] = 2 mg/kg, group D: zosuquidar 2.0 mg/kg + etoposide 20 mg/kg + 5.0% v/v polysorbate 20 oral
[8] = 6.3 mg/kg, group E: zosuquidar 6.3 mg/kg + etoposide 20 mg/kg + 5.0% v/v polysorbate 20 oral
[9] = 6.3 mg/kg, group F: zosuquidar 6.3 mg/kg + etoposide 20 mg/kg + 10% v/v polysorbate 20 oral

Sequence of P-gp (P08183 whole entry): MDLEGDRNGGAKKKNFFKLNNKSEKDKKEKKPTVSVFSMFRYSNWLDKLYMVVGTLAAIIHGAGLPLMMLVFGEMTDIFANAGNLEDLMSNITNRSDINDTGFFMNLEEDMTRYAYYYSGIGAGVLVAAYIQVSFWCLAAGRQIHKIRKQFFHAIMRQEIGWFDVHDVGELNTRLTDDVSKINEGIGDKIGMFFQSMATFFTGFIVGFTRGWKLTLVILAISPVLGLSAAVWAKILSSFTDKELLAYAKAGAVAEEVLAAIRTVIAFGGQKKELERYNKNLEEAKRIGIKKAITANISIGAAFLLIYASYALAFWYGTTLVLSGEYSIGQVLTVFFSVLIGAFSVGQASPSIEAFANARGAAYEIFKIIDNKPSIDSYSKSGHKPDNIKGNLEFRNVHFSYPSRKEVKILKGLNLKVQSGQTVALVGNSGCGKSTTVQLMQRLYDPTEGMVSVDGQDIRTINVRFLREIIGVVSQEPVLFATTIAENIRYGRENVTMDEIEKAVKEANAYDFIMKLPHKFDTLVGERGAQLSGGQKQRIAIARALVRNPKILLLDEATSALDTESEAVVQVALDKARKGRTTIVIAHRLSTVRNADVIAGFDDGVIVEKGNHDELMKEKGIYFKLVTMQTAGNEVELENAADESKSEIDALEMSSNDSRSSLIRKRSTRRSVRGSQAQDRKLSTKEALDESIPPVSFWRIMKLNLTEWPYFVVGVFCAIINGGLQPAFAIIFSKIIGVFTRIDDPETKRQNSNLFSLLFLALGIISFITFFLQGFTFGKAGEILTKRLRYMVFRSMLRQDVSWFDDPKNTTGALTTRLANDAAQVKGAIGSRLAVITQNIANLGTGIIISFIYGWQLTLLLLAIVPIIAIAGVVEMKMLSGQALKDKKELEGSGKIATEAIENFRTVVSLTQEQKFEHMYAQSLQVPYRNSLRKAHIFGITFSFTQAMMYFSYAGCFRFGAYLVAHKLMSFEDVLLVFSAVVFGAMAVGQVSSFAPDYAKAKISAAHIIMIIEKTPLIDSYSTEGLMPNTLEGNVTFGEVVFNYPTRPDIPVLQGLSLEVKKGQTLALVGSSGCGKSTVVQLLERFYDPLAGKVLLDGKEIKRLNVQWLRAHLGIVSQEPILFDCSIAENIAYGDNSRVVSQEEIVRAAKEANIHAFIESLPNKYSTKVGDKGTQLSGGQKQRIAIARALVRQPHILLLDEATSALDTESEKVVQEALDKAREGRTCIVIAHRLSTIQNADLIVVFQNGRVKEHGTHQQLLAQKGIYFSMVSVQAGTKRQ

O[C@@H](COc1cccc2ncccc12)CN1CCN([C@@H]2c3ccccc3[C@@H]3[C@H](c4ccccc42)C3(F)F)CC1 [zosuquidar]
Zosuquidar AUC0–6h ([1]; group F*: zosuquidar 0.63 mg/kg + etoposide 20 mg/kg oral): BLQ | Zosuquidar AUC0–6h [1, 5]: 8.67 ± 0.77 ng·h/mL | Zosuquidar Cmax [1, 5]: 2.10 ± 0.27 ng/mL | Zosuquidar bioavailability [1, 5]: 2.58 ± 0.23% | Zosuquidar tmax, median [Q1; Q3] [1, 5]: 120 [45;135] min | Zosuquidar t½ [1, 5]: 217 ± 27 min | Zosuquidar AUC0–6h [1, 6]: 43.6 ± 5.4 ng·h/mL | Zosuquidar Cmax [1, 6]: 10.9 ± 1.2 ng/mL | Zosuquidar bioavailability [1, 6]: 4.12 ± 0.51% | Zosuquidar tmax, median [Q1; Q3] [1, 6]: 90 [45;120] min | Zosuquidar t½ [1, 6]: 161 ± 13 min | nonspecific zosuquidar adsorption ([2]; 500 nM zosuquidar): 2.19 ± 6.71% | zosuquidar adsorption ([2]; 500 nM zosuquidar, 50% DMSO in HEPES HBSS pH 7.4): −5.9 ± 1.1% | zosuquidar adsorption ([2]; 500 nM zosuquidar, FaSSIF-V2 pH 6.5): 13.6 ± 1.0% | zosuquidar adsorption ([2]; 500 nM zosuquidar, HEPES HBSS pH 7.4 + 0.5% methanol): 97.0 ± 0.6% | nonspecific zosuquidar adsorption ([2]; 0.75 µM zosuquidar): 6.83 ± 2.33% | nonspecific zosuquidar adsorption ([2]; 2.5 µM zosuquidar): 2.76 ± 0.22% | nonspecific zosuquidar adsorption ([2]; 7.5 µM zosuquidar): −0.10 ± 2.02% | nonspecific zosuquidar adsorption ([2]; 25 µM zosuquidar): 32.5 ± 0.7% | zosuquidar concentration found (theoretical 250 nM) ([2]; after transfer to a new vial): 38.1 ± 13.7 nM | zosuquidar concentration found (theoretical 250 nM) ([2]; without transfer): 282 ± 8 nM | Zosuquidar AUC0–6h ([3]; group B: zosuquidar 0.63 mg/kg + etoposide 20 mg/kg + 1.0% v/v polysorbate 20 oral): BLQ | Zosuquidar tmax, median [Q1; Q3] ([3]; group E: zosuquidar 6.3 mg/kg + etoposide 20 mg/kg + 5.0% v/v polysorbate 20 oral): 60 [56;120] min | AUC(0-t) [3, 7]: 18.9 ± 2.8 ng·h/mL | Cmax [3, 7]: 4.8 ± 0.5 ng/mL | bioavailability [3, 7]: 5.64 ± 0.83% | half-life [3, 7]: 180 ± 23 min | AUC(0-t) [3, 8]: 47 ± 3.7 ng·h/mL | AUC(0-t) [3, 9]: 56.8 ± 4.2 ng·h/mL | Cmax [3, 8]: 13.2 ± 1 ng/mL | Cmax [3, 9]: 16.6 ± 1.1 ng/mL | bioavailability [3, 8]: 4.45 ± 0.35% | bioavailability [3, 9]: 5.38 ± 0.4% | half-life [3, 8]: 152 ± 20 min | half-life [3, 9]: 147 ± 10 min | mean P-gp activity (P-gp; […] zosuquidar + 2.5 µM polysorbate 20, spike method): 61% | mean P-gp activity (P-gp; […] zosuquidar + 5 µM polysorbate 20, spike method): 46% | discrepancy of IC50, serial dilution vs spike method (P-gp; calcein-AM, zosuquidar alone): 60 fold | effect on solubility [4]: did not significantly affect
